Reference: ChEMBL document CHEMBL6182891, “Discovery of novel 1,2,3-Triazole hybrids derivatives as vasorelaxant agents: Molecular structure, Hirshfeld surface, in-vivo and in-silico investigation by molecular docking simulation” (Eur J Med Chem, 2025)

What was measured:
[1] = tested on: Aorta; assay: Vasorelaxant activity in endothelium-intact thoracic aortic rings of albino adult male Wistar rat assessed as reduction in epinephrine-induced contracture; format: functional, tissue-based
[2] = tested on: Aorta; assay: Vasorelaxant activity in endothelium-intact thoracic aortic rings of albino adult male Wistar rat assessed as reduction in epinephrine-induced contracture at 0.05 to 0.2 mg/ml relative to control; format: functional; conditions: dose 0.05-0.2 mg/ml

| EC50 [1] | Structure (SMILES) | Emax [2] |
| --- | --- | --- |
| 568 µM | O=C(Cn1cc(COC(Cn2cnc3ccccc3c2=O)c2ccccc2)nn1)Nc1ccccc1 (centres undefined) | 35% |
| 246 µM | Cc1ccccc1NC(=O)Cn1cc(COC(Cn2cnc3ccccc3c2=O)c2ccccc2)nn1 (centres undefined) | 93.5% |
| 387 µM | COc1ccc(NC(=O)Cn2cc(COC(Cn3cnc4ccccc4c3=O)c3ccccc3)nn2)cc1 (centres undefined) | 50.9% |
| 1040 µM | Cc1ccc(NC(=O)Cn2cc(COC(Cn3cnc4ccccc4c3=O)c3ccccc3)nn2)cc1 (centres undefined) | 16.4% |
| 345 µM | O=C(Cn1cc(COC(Cn2cnc3ccccc3c2=O)c2ccccc2)nn1)Nc1ccc(F)cc1 (centres undefined) | 48.2% |
| 198 µM | O=C(Cn1cc(COC(Cn2cnc3ccccc3c2=O)c2ccccc2)nn1)Nc1ccc(Cl)cc1 (centres undefined) | 95.1% |
| 39 µM | COc1ccc(CCN(C)CCCC(C#N)(c2ccc(OC)c(OC)c2)C(C)C)cc1OC (centres undefined) [VERAPAMIL] | 61.7% |
